Data published in article PMC11591356, “Immunomodulatory Effects of the Tobacco Defensin NaD1” (Antibiotics, 2024).
Values joined by “and” are separate entries in the source; they are usually repeats but may differ in a detail not shown here. Equal entries are not always repeated. Ends that are not written are not given here.

Experiments:
[1] = test system: Caco-2 polarized monolayer; assay: Caco-2 permeability assay, bidirectional transport; assay type: in vitro ADME, human; conditions: Caco-2 polarized monolayer (21 days, TEER > 400 Ω cm^2), 5 µM FITC-labeled NaD1, HBSS transfer buffer pH 7.4, 90 min
Procedure: Caco-2 (ATCC HTB-37) cells were thawed and cultured in complete DMEM/F-12 culture medium (Corning), supplemented with 10% FBS in a humidified CO2-intubator. After the culture was subcultivated three times, the cells were seeded on cell inserts (PET, 0.4 μm, 0.6 cm^2 surface area, SPL Life Sciences, Pocheon-si, Republic of Korea) at a density of 2.5 × 10^5 cells/cm^2. Cells were grown for 21 days with re-feeding with the fresh medium every 2–3 days. To evaluate integrity of Caco-2 monolayer, a transepithelial electrical resistance (TEER) was measured by Millicell ERS-2 Voltohmmeter (Merck-Millipore, Burlington, MA, USA). Only inserts with TEER > 400 Ω cm^2 were used in the transport assay.
The permeability assay was conducted in transfer buffer (HBSS solution, containing 1 mM CaCl2, 1 mM MgCl2, 10 mM D(+)glucose, pH 7.4). […]
The apparent permeability coefficients (Papp) were calculated for each insert according to the following equation: Papp = dQ/dt × (1/(A × C0)), where dQ/dt is an amount of product present in the basolateral or apical chamber as a function of time (nM/s), A is an area of the insert (in cm^2) and C0 is an initial concentration of NaD1 in the apical or basolateral chamber (nM/mL). […]

[2] = test system: immature monocyte-derived dendritic cells (moDC); assay: Multiplex xMAP assessment of cytokine production by immature monocyte-derived dendritic cells; assay type: cell-based, human
Procedure: Immature monocyte-derived dendritic cells (moDC) were obtained from primary monocytes by a differentiation protocol involving a cytokine cocktail with IL-4 and GM-CSF [38]. For this, the monocytes were cultured in complete RPMI-1640 containing 10% HS, 1×AA solution, 500 U/mL rhIL-4 (Sci-Store, Moscow, Russia) and 800 U/mL rhGM-CSF (Sci-Store) for 3 days. Then, the cells were re-fed with the fresh medium with rhIL-4 and rhGM-CSF and cultured for 4 more days.
For the study of the immunomodulatory properties of NaD1, monocytes and immature dendritic cells (moDC) were seeded into the wells of a 24-well plate at densities of 4 × 10^5 and 1.3 × 10^5 cells per well, respectively, in complete RPMI-1640 with 10% HS and AA solution. Then, 24 h later, the culture medium was replaced by a fresh one either with 2 μM NaD1 for stimulation of the cells or without if for the control wells. The cultures were kept in a humidified CO2-intubator for 24 h and then the samples of the culture media were taken and frozen.
The absolute levels of 48 cytokines, chemokines and growth factors were determined at a protein level by multiplex xMAP technology (Luminex, Austin, TX, USA). For this, a MILLIPLEX Human Panel A kit (HCYTA-60K-PX48, Merck, Darmstadt, Germany) was used and the following 48 analytes were evaluated in two biological replications: sCD40L, EGF, CCL11/Eotaxin-1, FGF-basic/FGF-2, Flt-3 ligand, CX3CL1/Fractalkine, G-CSF, GM-CSF, GROα, IFNα2, IFN-γ, IL-1α, IL-1β, IL-1RA, IL-2, IL-3, IL-4, IL-5, IL-6, IL-7, CXCL8/IL-8, IL-9, IL-10, IL-12(p40), IL-12(p70), IL-13, IL-15, IL-17A/CTLA8, IL-17E/IL-25, IL-17F, IL-18, IL-22, IL-27, CXCL10/IP-10, CCL2/MCP-1, CCL7/MCP-3, M-CSF, CCL22/MDC, CXCL9/MIG, CCL3/MIP-1α, CCL4/MIP-1β, PDGF-AA, PDGF-AB/BB, CCL5/RANTES, TGF-α, TNF-α, TNF-β and VEGF-A. The fluorescent data were obtained on a MAGPIX system (Merck) operated with xPONENT 4.2 software (Merck). Final analysis was performed in MILLIPLEX Analyst v5.1 software (Merck).

[3] = test system: human dermal fibroblast cells (AHDF); design: method as in PMID 28179997; conditions: read-out: IC50, MTT cell viability assay; cited from earlier work

With “NaD1: Recombinant tobacco floral defensin NaD1 (UNIPROT Q8GTM0), obtained by heterologous expression in E. coli; FITC-labeled in the permeability assay (RECKTESNTFPGICITKPPCRKACISEKFTDGHCSKILRRCLCTKPC; cysteine pairing not given here; also: FITC label; UniProt Q8GTM0 26-72, looked up)” the “Apparent permeability coefficient Papp, A→B (absorptive)” value ([1]; apical to basolateral, mean of 6 independent inserts) was 27.2 nm/s, the “Apparent permeability coefficient Papp, B→A (secretory)” value ([1]; basolateral to apical, mean of 4 independent inserts) was 22.2 nm/s and the sCD40L absolute level ([2]; immature moDCs + 2 μM NaD1, 24 h, two biological replications, untreated control 116.89) was 92.12 pg/mL. The IL-2 absolute level ([2]; moDCs + 2 μM NaD1, 24 h, control 0.51) was <0.35↓ pg/ml, the IFNg absolute level ([2]; moDCs + 2 μM NaD1, 24 h, control 0.81) was <0.61↓ pg/ml and the IL-18 absolute level ([2]; moDCs + 2 μM NaD1, 24 h, control 1.17) was 0.78 pg/mL. The IL-10 absolute level ([2]; moDCs + 2 μM NaD1, 24 h, control 1.76) was <1.29↓ pg/ml, the IL-6 absolute level ([2]; moDCs + 2 μM NaD1, 24 h, control 1.92) was 0.85 pg/mL and the IL-9 absolute level ([2]; moDCs + 2 μM NaD1, 24 h, control 2.31) was 0.83 pg/mL. It also gave an IP-10 absolute level ([2]; moDCs + 2 μM NaD1, 24 h, control 2.51) of 2.51 pg/mL, a GM-CSF absolute level ([2]; moDCs + 2 μM NaD1, 24 h, control 3.8) of 2.87 pg/mL and an IL-4 absolute level ([2]; moDCs + 2 μM NaD1, 24 h, control 4.21) of 4.38 pg/mL. The GROa absolute level ([2]; moDCs + 2 μM NaD1, 24 h, control 5.3) was 2.88 pg/mL, the EGF absolute level ([2]; moDCs + 2 μM NaD1, 24 h, control 5.38) was 3.12 pg/mL and the TGF-a absolute level ([2]; moDCs + 2 μM NaD1, 24 h, control 6.04) was 4.68 pg/mL. For the same substance, the “IL-12 (p40) absolute level” value ([2]; moDCs + 2 μM NaD1, 24 h, control 6.14) was <2.07↓ pg/ml, the G-CSF absolute level ([2]; moDCs + 2 μM NaD1, 24 h, control 6.59) was 6.59 pg/mL and the IL-13 absolute level ([2]; moDCs + 2 μM NaD1, 24 h, control 10.99) was <2.24↓ pg/ml. For the same substance, the IL-1b absolute level ([2]; moDCs + 2 μM NaD1, 24 h, control 12.11) was 5.8 pg/mL, the IL-1a absolute level ([2]; moDCs + 2 μM NaD1, 24 h, control 12.13) was 15.76 pg/mL and the IFNa2 absolute level ([2]; moDCs + 2 μM NaD1, 24 h, control 13.22) was 7.1 pg/mL. The PDGF-AA absolute level ([2]; moDCs + 2 μM NaD1, 24 h, control 14.68) was 12.15 pg/mL, the Fractalkine absolute level ([2]; moDCs + 2 μM NaD1, 24 h, control 26.94) was 20.9 pg/mL and the TNFa absolute level ([2]; moDCs + 2 μM NaD1, 24 h, control 45.9) was 30.64 pg/mL. It also gave an MCP-3 absolute level ([2]; moDCs + 2 μM NaD1, 24 h, control 62.22) of 44.12 pg/mL, an MIP-1a absolute level ([2]; moDCs + 2 μM NaD1, 24 h, control 62.72) of 35.36 pg/mL and an MIG absolute level ([2]; moDCs + 2 μM NaD1, 24 h, control 76.28) of 16.72 pg/mL. For the same substance, the FGF-2 absolute level ([2]; moDCs + 2 μM NaD1, 24 h, control 78.9) was 71.22 pg/mL, the IL-27 absolute level ([2]; moDCs + 2 μM NaD1, 24 h, control 80.06) was 68.79 pg/mL and the M-GSF absolute level ([2]; moDCs + 2 μM NaD1, 24 h, control 101.68) was 45.07 pg/mL. The IL-1RA absolute level ([2]; moDCs + 2 μM NaD1, 24 h, control 199.63) was 133 pg/mL and 133.58 pg/mL, the MIP-1b absolute level ([2]; moDCs + 2 μM NaD1, 24 h, control 204.09) was 120 pg/mL and 120.19 pg/mL and the MCP-1 absolute level ([2]; moDCs + 2 μM NaD1, 24 h, control 514.13) was 288 pg/mL and 288.04 pg/mL. The MDC absolute level ([2]; moDCs + 2 μM NaD1, 24 h, control 1484) was 1278 pg/mL, the IL-8 absolute level ([2]; moDCs + 2 μM NaD1, 24 h, control 1856) was 1037 pg/mL and the IL-7 absolute level ([2]; moDCs + 2 μM NaD1, 24 h, control <0.32) was <0.32↓ pg/ml. For the same substance, the IL-5 absolute level ([2]; moDCs + 2 μM NaD1, 24 h, control <0.33) was <0.33↓ pg/ml, the FLT-3L absolute level ([2]; moDCs + 2 μM NaD1, 24 h, control <0.61) was <0.61↓ pg/ml and the RANTES absolute level ([2]; moDCs + 2 μM NaD1, 24 h, control <0.73) was <0.73↓ pg/ml. For the same substance, the IL-3 absolute level ([2]; moDCs + 2 μM NaD1, 24 h, control <0.77) was <0.77↓ pg/ml, the TNFb absolute level ([2]; moDCs + 2 μM NaD1, 24 h, control <0.78) was <0.78↓ pg/ml and the IL-17A absolute level ([2]; moDCs + 2 μM NaD1, 24 h, control <1.00) was <1.00↓ pg/ml. The VEGFa absolute level ([2]; moDCs + 2 μM NaD1, 24 h, control <1.44) was <1.44↓ pg/ml, the “IL-12 (p70) absolute level” value ([2]; moDCs + 2 μM NaD1, 24 h, control <1.79) was <1.79↓ pg/ml and the IL-15 absolute level ([2]; moDCs + 2 μM NaD1, 24 h, control <1.84) was <1.84↓ pg/ml. The Eotaxin absolute level ([2]; moDCs + 2 μM NaD1, 24 h, control <3.80) was <3.80↓ pg/ml, the PDGF-AB/BB absolute level ([2]; moDCs + 2 μM NaD1, 24 h, control <5.75) was <5.75↓ pg/ml and the IL-22 absolute level ([2]; moDCs + 2 μM NaD1, 24 h, control <9.00) was <9.00↓ pg/ml. The IL-17F absolute level ([2]; moDCs + 2 μM NaD1, 24 h, control <16.98) was <16.98↓ pg/ml, the IL-17E/IL-25 absolute level ([2]; moDCs + 2 μM NaD1, 24 h, control <25.82) was <25.82↓ pg/ml and the IC50 [3] was ~10 µM.
